These are literature values, as cited in patent US20090061012A1 (priority 2007, published 2009).

Common to all, as to settings: in vivo
Data set [1] concerns Lemon, Blue, and Great White Sharks.
Data set [2] deals with sharks.
Data set [3] deals with sharks. This is another data set of the same source.
The test system of data set [4] is shark's respiratory systems via the gill rakes.

As to `CCCCCCCCCCCCOS(=O)(=O)[O-].[Li+]` [LLS, lithium lauryl sulfate], the “repelling sharks relative to pardaxin” value in data set [1] is listed as “even better than pardaxin”.
Consider `CCCCCCCCCCCCOS(=O)(=O)[O-].[Na+]` [SDS, sodium dodecyl sulphate], for which the “concentration at which effective as a repellent” value in data set [2] is 43.6 ppm.
Take `CCCCCCCCCCCCOS(=O)(=O)[O-].[Na+]` [SLS, sodium lauryl sulfate]: the “effectiveness in surrounding-cloud mode dispersions” value in data set [3] is on record as “not effective”. The “repelling sharks relative to pardaxin” value in data set [1] is on record as “even better than pardaxin”.
Consider `CCCCCCCCCCCCCCCCCCOS(=O)(=O)[O-].[Na+]` [SOS, sodium octadecyl sulphate], for which, in data set [1], the “repelling sharks relative to pardaxin” value is “even better than pardaxin”.
Take pardaxin: the “repellent impact on sharks” value in data set [4] is “significant repellent impact”.
